Measured values taken from the NIST ThermoML archive (doi:10.1016/j.jct.2019.06.017).
Several values for one entry are separate records, joined by “and”; a condition that tells them apart may be missing. Identical values can stand only once. ± gives the expanded uncertainty stated by the source.

Assay: Boiling temperature at pressure P
Conditions: Liquid, Ebulliometric method (Recirculating still)

Row | Structure (SMILES) | Boiling temperature at pressure P (2.8 kPa) [°C] | Boiling temperature at pressure P (4.8 kPa) | Boiling temperature at pressure P (9.8 kPa) [°C] | Boiling temperature at pressure P (19.8 kPa) [°C] | Boiling temperature at pressure P (29.8 kPa) [°C] | Boiling temperature at pressure P (39.8 kPa) [°C] | Boiling temperature at pressure P (49.8 kPa) [°C] | Boiling temperature at pressure P (59.8 kPa) [°C] | Boiling temperature at pressure P (69.8 kPa) [°C] | Boiling temperature at pressure P (79.8 kPa) [°C] | Boiling temperature at pressure P (89.8 kPa) [°C] | also measured
1 | OCCN1CCCC1 [1-(2-hydroxyethyl)pyrrolidine] | 87.5 ± 13 | 99.1 ± 8.8 °C | 115.7 ± 4.9 | 132.4 ± 3.2 | 144 ± 2.3 | 153.0 ± 1.8 | 159.5 ± 1.4 | 165.0 ± 1.2 | 169.5 ± 1 | 173.8 ± 0.8 | 176.7 ± 0.7 | 
2 | CCN(CC)CCCO [3-diethylamino-1-propanol] | 87.1 ± 6 |  |  | 132.2 ± 3.5 |  |  |  |  | 169.1 ± 1 |  |  | Boiling temperature at pressure P (1.8 kPa): 80.8 ± 6.5 °C; Boiling temperature at pressure P (22.3 kPa): 136.1 ± 3.1 °C; Boiling temperature at pressure P (24.8 kPa): 139.0 ± 2 °C; Boiling temperature at pressure P (34.8 kPa): 147.1 ± 1.7 °C; Boiling temperature at pressure P (44.8 kPa): 154.2 ± 1.5 °C; Boiling temperature at pressure P (54.8 kPa): 160.2 ± 1.5 °C; Boiling temperature at pressure P (64.8 kPa): 167.0 ± 1.4 °C
3 | CN(C)CCCO [3-dimethylamino-1-propanol] |  | 79.2 ± 7.2 °C and 79.8 ± 7 °C | 95.2 ± 5.9 | 112.7 ± 2.7 | 123.7 ± 2.2 | 132 ± 1.7 | 138.5 ± 1.4 | 144.1 ± 1.2 | 148.6 ± 1.1 | 153.2 ± 1 | 156.8 ± 0.9 | Boiling temperature at pressure P (14.8 kPa): 105.4 ± 4 °C; Boiling temperature at pressure P (99.8 kPa): 160.6 ± 0.9 °C
4 | O [water] |  |  | 45.2 ± 3.3 | 60 ± 2.7 | 69.0 ± 1.8 | 75.8 ± 1.4 | 81.2 ± 1.2 | 86.0 ± 1 | 90.0 ± 0.9 | 93.6 ± 0.7 |  | Boiling temperature at pressure P (100.1 kPa): 99.5 ± 0.7 °C
